{
  "source": "ChEMBL document CHEMBL1201862",
  "about": "“PubChem BioAssay data set” (2004)",
  "key": {"[1]": {"biological_target": "Acyl-homoserine lactone acylase PvdQ (Pseudomonas aeruginosa (strain LESB58), UniProt Q9I194)", "experiment": "PvdQ acylase enzyme activity blockers – biochemical, fluorescence, plate reader and imaging, cherry-picks, dose response (AID 493231)"}, "[2]": {"experiment": "blockers of HIV-1 envelope-mediated cell-cell fusion – cherry-pick, dose response (AID 652057)", "type": "functional, cell-based"}, "[3]": {"experiment": "general cell-killing toxicity readout – plate reader, dry powder samples, cytotoxicity control for PAX8 inhibitor project, dose response (AID 743021)", "type": "functional, cell-based"}, "[4]": {"experiment": "viability loss in CEM21 cells – cell-based, CellTiter-Glo luminescence, cherry-picked, cytotoxicity control for viral fusion inhibitor project, dose response (AID 652042);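 also: potency for signal decrease meaning cytotoxicity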", "type": "functional"}, "[5]": {"experiment": "blockers of HIV-1 ZM109 envelope-driven cell-cell fusion – HeLa effector, CEM target cells, luciferase, cherry-pick, dose response (AID 652058)", "type": "functional, cell-based"}, "[6]": {"experiment": "off-target signal loss in HeLa-CEM21 co-culture – HeLa F-luc CTL cells, cherry-picked, counter-screen for HIV-1 Env fusion inhibitor project, dose response (AID 652040);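 also: potency for signal decrease marking cytotoxic or nonspecific inhibition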", "type": "functional, cell-based"}, "[7]": {"experiment": "ADP-Glo luciferase signal interference – biochemical, luminescence, cherry-picked samples, set 2, artefact control for CDK5 inhibitor project, dose response (AID 504546)", "type": "functional, cell-based"}, "[8]": {"experiment": "Luminescence Cell-Based Dose Confirmation HTS to Identify Inhibitors of Platelet Dense Granule Release. [Related pubchem assays: 1663 (Primary HTS), 1678 (Summary of Project)]", "type": "functional"}, "[9]": {"experiment": "HIV-1 AD8 envelope cell-cell fusion blockers – cherry-pick, dose response (AID 652062);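 also: potency is for inhibitors of fusion seen as a drop in luminescence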", "type": "functional, cell-based"}, "[10]": {"biological_target": "Neurotensin receptor type 1 (Homo sapiens, UniProt P30989)", "type": "functional"}, "[11]": {"experiment": "viability loss of HPDE-C7K cells – cell-based, fluorescence, HTS, primary screen (AID 431)", "type": "functional", "settings": "Homo sapiens"}, "[12]": {"experiment": "HPDE-C7 pancreatic duct cell viability loss – fluorescence, HTS (AID 430)", "type": "functional, cell-based", "settings": "Homo sapiens"}, "Cytochrome P450 2D6": {"biological_target": "Cytochrome P450 2D6 (Homo sapiens, UniProt P10635)", "experiment": "qHTS Assay for Inhibitors and Substrates of Cytochrome P450 2D6. [Related pubchem assays: 410 ]", "type": "ADME", "settings": "read-out: Potency"}, "Cytochrome P450 2C9": {"biological_target": "Cytochrome P450 2C9 (Homo sapiens, UniProt P11712)", "settings": "Potency"}, "[13]": {"biological_target": "Transitional endoplasmic reticulum ATPase (Homo sapiens, UniProt P55072)", "experiment": "p97 ATPase inhibitors, dose response, biochemical (AID 1534)"}, "[14]": {"biological_target": "Transitional endoplasmic reticulum ATPase (Homo sapiens, UniProt P55072, C522A)", "experiment": "C522A mutant p97 ATPase inhibitors, dose response, counter-screen for p97 inhibitor project, biochemical, luminescence (AID 1544)"}, "Nonstructural protein 1": {"biological_target": "Nonstructural protein 1 (Influenza A virus, UniProt Q194T2)", "type": "functional, Influenza A virus (A/California/07/2009(H1N1))"}, "[15]": {"biological_target": "FAD-linked sulfhydryl oxidase ALR (Homo sapiens, UniProt P55789)", "experiment": "ALR-catalysed DTT oxidation blockers – biochemical, H2O2 detection, luminescence, cherry-pick, dose response (AID 493248)"}, "[16]": {"experiment": "IC50 of Artemis nuclease activity blockers – biochemical, fluorescence intensity, dose response (AID 720701);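 also: Artemis endonuclease enzyme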", "type": "functional"}, "[17]": {"tested_on": "Streptococcus sp. 'group A'", "experiment": "Streptococcus pyogenes SK(-)GAS viability under kanamycin – luminescence, BacTiterGlo, confirmation, counter-screen for streptokinase expression inhibitor project, dose response (AID 1900)", "type": "functional, organism-based"}, "Streptokinase A": {"biological_target": "T1, Streptokinase A (Streptococcus pyogenes serotype M1, UniProt P10520)", "T1 sequence (P10520 whole entry)": "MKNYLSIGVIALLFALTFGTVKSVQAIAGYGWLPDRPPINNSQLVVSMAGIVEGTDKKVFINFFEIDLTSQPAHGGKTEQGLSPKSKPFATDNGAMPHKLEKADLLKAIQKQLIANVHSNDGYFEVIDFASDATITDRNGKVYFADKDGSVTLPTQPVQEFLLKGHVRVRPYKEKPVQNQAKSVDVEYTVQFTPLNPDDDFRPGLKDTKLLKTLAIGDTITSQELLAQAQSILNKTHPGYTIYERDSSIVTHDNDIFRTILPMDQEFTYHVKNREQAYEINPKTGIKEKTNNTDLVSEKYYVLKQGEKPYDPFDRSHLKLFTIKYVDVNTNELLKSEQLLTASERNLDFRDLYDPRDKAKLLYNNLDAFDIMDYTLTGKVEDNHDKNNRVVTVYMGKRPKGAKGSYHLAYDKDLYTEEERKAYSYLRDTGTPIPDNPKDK", "experiment": "viability-normalized secreted streptokinase activity reduction – plasminogen activation absorbance, OD405, dose response (AID 1914)", "type": "functional, Streptococcus pyogenes M1 GAS"}, "Streptococcus": {"tested_on": "Streptococcus", "experiment": "GAS UMAA2166 growth inhibition – luminescence, BacTiterGlo, counter-screen for streptokinase expression inhibitor project, dose response (AID 1915)", "type": "functional, organism-based"}, "[18]": {"biological_target": "T2, Eukaryotic translation initiation factor 2-alpha kinase 3 (Homo sapiens, UniProt Q9NZJ5)", "experiment": "Counterscreen assay for PERK inhibitors: Dose response cell-based high throughput screening assay to measure inhibition of PERK at 6 hours. [Related pubchem assays: 1522, 1416 ]", "type": "functional"}, "[19]": {"biological_target": "T2, Eukaryotic translation initiation factor 2-alpha kinase 3", "experiment": "Dose response cell-based high-throughput screening assay to measure PERK inhibition. [Related pubchem assays: 1416 ]", "type": "functional"}, "[20]": {"biological_target": "T3, Alkaline phosphatase, tissue-nonspecific isozyme (Homo sapiens, UniProt P05186)", "T3 sequence (P05186 whole entry)": "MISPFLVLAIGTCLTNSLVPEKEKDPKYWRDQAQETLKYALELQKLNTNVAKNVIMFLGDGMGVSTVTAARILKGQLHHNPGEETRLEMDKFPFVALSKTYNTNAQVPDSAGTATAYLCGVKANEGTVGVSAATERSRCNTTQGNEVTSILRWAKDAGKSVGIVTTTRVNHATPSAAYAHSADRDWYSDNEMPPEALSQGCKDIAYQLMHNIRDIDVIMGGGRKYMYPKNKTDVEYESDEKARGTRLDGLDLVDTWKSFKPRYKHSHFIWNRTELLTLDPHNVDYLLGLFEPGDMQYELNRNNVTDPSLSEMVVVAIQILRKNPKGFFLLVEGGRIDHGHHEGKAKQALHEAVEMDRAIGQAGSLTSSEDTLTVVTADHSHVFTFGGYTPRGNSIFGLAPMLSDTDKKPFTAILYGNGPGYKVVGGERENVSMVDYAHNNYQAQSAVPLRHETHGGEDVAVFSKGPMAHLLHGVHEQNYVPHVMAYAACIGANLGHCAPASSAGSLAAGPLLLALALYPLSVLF"}},
  "note": "Active and inactive are the calls of the source.",
  "data": [
    {"smiles": "Cc1cc(C)nc(N(C#N)Cc2cccc([N+](=O)[O-])c2)n1", "values": [
      {"measurement": "AC50", "setting": "[1]", "result": "4.72 µM (active)"}
    ]},
    {"smiles": "COc1ccc(C(=O)O/N=C(\\N)c2ccccn2)cc1", "values": [
      {"measurement": "AC50", "setting": "[2]", "result": "2.26 µM (active)"},
      {"measurement": "AC50", "setting": "[3]", "result": "30 µM (active)"},
      {"measurement": "AC50", "setting": "[4]", "result": "21.6 µM (active)"},
      {"measurement": "AC50", "setting": "[5]", "result": "19.4 µM (active)"},
      {"measurement": "AC50", "setting": "[6]", "result": "7.65 µM (active)"},
      {"measurement": "AC50", "setting": "[7]", "result": "19.8 µM (active)"},
      {"measurement": "EC50", "setting": "[8]", "result": "0.962 µM (active)"},
      {"measurement": "AC50", "setting": "[9]", "result": "11.9 µM (active)"}
    ]},
    {"smiles": "Cc1sc(NC(=O)c2ccco2)nc1-c1ccc2c(c1)CC(C)N2C(=O)C1CC1", "note": "(stereo not given)", "values": [
      {"measurement": "EC50", "setting": "[10]", "result": "30.2 µM (inactive)"},
      {"measurement": "EC50", "setting": "[11]", "result": "7.22 µM (active)"},
      {"measurement": "EC50", "setting": "[12]", "result": "7.02 µM (active)"}
    ]},
    {"smiles": "Clc1nc(NCCc2ccccc2)c2ncn(-c3ccccc3)c2n1", "values": [
      {"measurement": "AC50", "setting": "Cytochrome P450 2D6", "result": "3.98 µM (inconclusive)"},
      {"measurement": "AC50", "setting": "Cytochrome P450 2C9", "result": "7.94 µM (inconclusive)"}
    ]},
    {"smiles": "O=C(NNc1c2ccccc2nc2ccccc12)c1ccc(O)cc1O", "values": [
      {"measurement": "IC50", "setting": "[13]", "result": "> 50 µM (not active)"},
      {"measurement": "IC50", "setting": "[14]", "result": "> 50 µM (not active)"},
      {"measurement": "IC50", "setting": "Nonstructural protein 1", "result": "32.1 µM (active)"},
      {"measurement": "AC50", "setting": "[15]", "result": "0.062 µM (active)"},
      {"measurement": "IC50", "setting": "[16]", "result": "13.3 µM (active)"},
      {"measurement": "EC50", "setting": "[17]", "result": "2.59 µM (active)"},
      {"measurement": "EC50", "setting": "Streptokinase A", "result": "> 150 µM (not active)"},
      {"measurement": "EC50", "setting": "Streptococcus", "result": "23.7 µM (active)"}
    ]},
    {"smiles": "Cc1nsc(N)c1C(=O)O", "values": [
      {"measurement": "EC50", "setting": "[18]", "result": "> 55.7 µM (not active)"},
      {"measurement": "EC50", "setting": "[19]", "result": "> 55.7 µM (not active)"}
    ]},
    {"smiles": "COc1ccccc1CNC(=O)C1(NC(=O)Nc2ccc(C)cc2)CCCCC1", "values": [
      {"measurement": "EC50", "setting": "[20]", "result": "37.3 µM (active)"}
    ]}
  ]
}
